Holding throughout (experiment): NCI-60 cell line screen, 48 h
The subject of assay [1] is PC-3 prostate.
Assay [2] has as its system HCT-116 colon.
Assay [3] deals with K-562 leukemia.
Assay [4] concerns OVCAR-8 ovarian.
Assay [5] deals with HCT-15 colon.
The subject of assay [6] is T-47D breast.
Assay [7] deals with A549 NSCLC.
The test system of assay [8] is CCRF-CEM leukemia.
In assay [9] the test system is A498 renal.
The subject of assay [10] is SK-MEL-2 melanoma.

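Five compound concentrations were applied to cells in 96-well plates for 48 hours; endpoints were derived by simple linear interpolation of the resulting dose-response curve. GI50 = concentration required for 50% inhibition of growth. TGI: concentration producing complete growth inhibition.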 Some results are limits rather than exact numbers.

This is an account of results in PubChem BioAssay (NCI).

For the molecule `O=C(Nc1ncc([N+](=O)[O-])s1)c1cccc([N+](=O)[O-])c1`, the GI50 is 2.99 µM in assay [1]; 2.72 µM in [2]; 2.49 µM in assay [3]; 3.2 µM in assay [4]; 6.11 µM in assay [5]; 2.02 µM in assay [6]. Besides, the GI50 in assay [7] was 4.24 µM; in assay [8], 2.39 µM; in assay [9], 2.1 µM. Besides, the TGI was over 100 µM in assay [1]; 16.5 µM in [2]; over 40 µM in assay [3]; 20.3 µM in assay [4]; over 100 µM in assay [5]; 12.9 µM in assay [6]. For the same molecule, the TGI in assay [7] is 42.5 µM; in assay [8], over 29.2 µM; in assay [9] it was 24.5 µM.
Turning to `CCOC(=O)c1[nH]c2cccc3c2c1CC(Br)C3=O` (centres undefined), the TGI stood at 33 µM in [1]; 7.79 µM in assay [2]; 41.5 µM in [4]; 18.8 µM in assay [5]; 40.9 µM in [6]; 38.2 µM in assay [7]. Besides, the TGI was over 100 µM in [8] and 32.3 µM in [9].
On to `N#Cc1c2ccccc2c2nnc3cc(C(F)(F)F)ccc3n12`, for which the GI50 in assay [1] was 48.1 µM; in assay [2] it was 25.4 µM; in assay [3], 48.3 µM; in assay [4] it was 68.6 µM; in assay [5], 93.4 µM; in [6], over 100 µM. Further, the GI50 in assay [7] is 36.3 µM. Moreover, the TGI in assay [1], in assay [2], in assay [3], in assay [4], in assay [5] and in assay [6] was over 100 µM each time. The molecule also had a TGI in assay [7] of over 100 µM.
With `COc1c(O)cc2oc3cc(O)c(CC=C(C)C)c(O)c3c(=O)c2c1C/C=C(\C)CCC=C(C)C`, the GI50 was 5.55 µM in assay [1]; 5.24 µM in assay [2]; 7.29 µM in assay [3]; 6.46 µM in assay [10]; 5.45 µM in assay [4]; 5.69 µM in assay [5]. Moreover, the figures for the GI50 in assay [7], in assay [8] and in assay [9] were 5.1 µM, 11.7 µM and 5.96 µM, respectively. The TGI in assay [1] is 11.2 µM; in [2], 10.4 µM; in assay [3] it was 16.6 µM; in assay [10], 12.1 µM; in [4], 10.6 µM; in [5], 11.7 µM. For the same molecule, the results for the TGI in assay [7], in [8] and in assay [9] were 9.64 µM, 32.5 µM and 10.5 µM, respectively.
For `CC(C)SC1SCC2C(=O)N(C)C3(CC3C)C(=O)OCC(NC(=O)c3nc4ccccc4cc3O)C(=O)NC(C)C(=O)N(C)C1C(=O)N(C)C1(CC1C)C(=O)OCC(NC(=O)c1nc3ccccc3cc1O)C(=O)NC(C)C(=O)N2C` (centres undefined), the TGI in assay [1] was under 0.0001 µM; in assay [2], over 100 µM; in assay [3], under 0.0001 µM; in [6], over 100 µM; in [7], 17 µM; in assay [8] it was under 0.0001 µM. This molecule also returned a TGI in assay [9] of under 0.0001 µM.
`COc1ccc(/C=C\c2cc(OC)c(OC)c(OC)c2)cc1NC(=O)[C@@H](N)CO`: the GI50 in assay [1] was 0.0188 µM; in assay [2], 0.0176 µM; in assay [3], under 0.01 µM; in assay [10] it was 0.0198 µM; in assay [4], 0.0328 µM; in assay [5], 0.0165 µM. Moreover, the figures for the GI50 in assay [7], in [8] and in assay [9] were 0.0295 µM, 0.0263 µM and under 0.01 µM, respectively. Further, the TGI in [1], in assay [2], in assay [3], in assay [10], in [4] and in assay [5] was over 100 µM throughout. The TGI in assay [7] was over 100 µM; in assay [8] it was over 100 µM; in assay [9] it was under 0.0158 µM.
As for `Cc1cc(S(=O)(=O)Nc2nnc(-c3ccco3)c(-c3ccco3)n2)c(SCc2ccccc2)cc1Cl`, the GI50 in assay [1] is 28 µM; in assay [2] it was 33.2 µM; in [3], 28.2 µM; in assay [4], 26.6 µM; in assay [5], 21.1 µM; in [6] it was 25.2 µM. The GI50 in assay [7] was 34.7 µM; in assay [8] it was 23.2 µM. The TGI is 57 µM in [1]; over 100 µM in [2]; over 100 µM in [3]; 71.1 µM in assay [4]; 43.3 µM in [5]; 48.6 µM in assay [6]. Besides, the TGI in assay [7] is over 100 µM; in assay [8], 66.1 µM.
